Measurements: patent US20230081426A1, “COMPOUNDS AND METHODS FOR KRAS MODULATION AND INDICATIONS THEREFOR” (Plexxikon Inc., priority 2020, published 2023)

How the values were obtained:
[1] = target: T1, G12D-mutant human KRAS (amino acid residues 1-188) (Homo sapiens, UniProt P01116, G12D); assay: KRAS Binding Disruption Assay (AlphaScreen; biotinylated KRpep-2d analogue or RAF1-RBD), G12D; details: KRAS G12D; geometric mean; read-out: KRAS GMean IC50 (uM) MUTATION: G12D
T1 construct: G12D or G12C-mutant human KRAS (amino acid residues 1-188) with FLAG tag; made in house; host or cells: E. coli
Outline: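 AlphaScreen readout: signal falls as compound displaces biotinylated KRpep-2d analogue or RAF1-RBD from mutant KRAS. Both partners at 5-20 nM, 1 h binding at 25° C, then 10 μg/mL Anti-Flag acceptor and streptavidin donor beads for 1 h. IC50 by nonlinear regression of % inhibition.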

[2] = target: T2, G12V-mutant human KRAS (amino acid residues 1-188) (Homo sapiens, UniProt P01116, G12V); assay: KRAS Binding Competition Assay (AlphaScreen; biotinylated KRpep-2d analogue), G12V; details: geometric mean, read-out: KRAS GMean IC50 (uM) MUTATION: G12V
T2 construct: G12V-mutant human KRAS (amino acid residues 1-188) with FLAG tag was purified from E. coli; made in house; host or cells: E. coli

Compound	IC50 [1] [µM]	IC50 [2] [µM]
CN1CCC[C@H]1COc1nc(N2C[C@H]3CC[C@@H](C2)N3)c2ccc(-c3c[nH]c4ccc(C#N)cc34)c(F)c2n1 [P-0313, 3-(4-((1R,5S)-3,8-diazabicyclo[3.2.1]octan-3-yl)-8-fluoro-2-(((S)-1-methylpyrrolidin-2-yl)methoxy)quinazolin-7-yl)-1H-indole-5-carbonitrile]	10 to 100	100 to 1000
COc1ccc2[nH]cc(-c3ccc4c(N5C[C@H]6CC[C@@H](C5)N6)nc(OC[C@@H]5CCCN5C)nc4c3F)c2c1 [P-0314, 4-((1R,5S)-3,8-diazabicyclo[3.2.1]octan-3-yl)-8-fluoro-7-(5-methoxy-1H-indol-3-yl)-2-(((S)-1-methylpyrrolidin-2-yl)methoxy)quinazoline]	10 to 100	100 to 1000
CN1CCC[C@H]1COc1nc(N2[C@@H]3CC[C@H]2CN(C(=O)CS(N)(=O)=O)C3)c2ccc(-c3cc(O)cc4ccccc34)cc2n1 [P-0315, 2-((1R,5S)-8-(7-(3-hydroxynaphthalen-1-yl)-2-(((S)-1-methylpyrrolidin-2-yl)methoxy)quinazolin-4-yl)-3,8-diazabicyclo[3.2.1]octan-3-yl)-2-oxoethane-1-sulfonamide]	10 to 100	10 to 100
CN1CCC[C@H]1COc1nc(N2[C@@H]3CC[C@H]2CN(C(=O)CNS(N)(=O)=O)C3)c2ccc(-c3cc(O)cc4ccccc34)cc2n1 [P-0316, N-(2-((1R,5S)-8-(7-(3-hydroxynaphthalen-1-yl)-2-(((S)-1-methylpyrrolidin-2-yl)methoxy)quinazolin-4-yl)-3,8-diazabicyclo[3.2.1]octan-3-yl)-2-oxoethyl)aminosulfonamide]	10 to 100	10 to 100
CN1CCC[C@H]1COc1nc(N2[C@@H]3CC[C@H]2CN(C(=O)CNC(N)=O)C3)c2ccc(-c3cc(O)cc4ccccc34)cc2n1 [P-0317, 1-(2-((1R,5S)-8-(7-(3-hydroxynaphthalen-1-yl)-2-(((S)-1-methylpyrrolidin-2-yl)methoxy)quinazolin-4-yl)-3,8-diazabicyclo[3.2.1]octan-3-yl)-2-oxoethyl)urea]	10 to 100	10 to 100
CN1CCC[C@H]1COc1nc(N2C[C@H]3CC[C@@H](C2)N3)c2cc(Cl)c(-c3c[nH]c4ccccc34)c(F)c2n1 [P-0318, 4-((1R,5S)-3,8-diazabicyclo[3.2.1]octan-3-yl)-6-chloro-8-fluoro-7-(1H-indol-3-yl)-2-(((S)-1-methylpyrrolidin-2-yl)methoxy)quinazoline]	0.0001 to 10	10 to 100
COc1ccc2[nH]cc(-c3c(Cl)cc4c(N5C[C@H]6CC[C@@H](C5)N6)nc(OC[C@@H]5CCCN5C)nc4c3F)c2c1 [P-0319, 4-((1R,5S)-3,8-diazabicyclo[3.2.1]octan-3-yl)-6-chloro-8-fluoro-7-(5-methoxy-1H-indol-3-yl)-2-(((S)-1-methylpyrrolidin-2-yl)methoxy)quinazoline]	0.0001 to 10	10 to 100
CN(C)c1cccc(COc2nc(N3[C@@H]4CC[C@H]3CNC4)c3ccc(-c4cc(O)cc5ccccc45)cc3n2)c1 [P-0320, 4-(4-((1R,5S)-3,8-diazabicyclo[3.2.1]octan-8-yl)-2-((3-(dimethylamino)benzyl)oxy)quinaz-olin-7-yl)naphthalen-2-ol]	0.0001 to 10	0.0001 to 10
Oc1cc(-c2ccc3c(N4[C@@H]5CC[C@H]4CNC5)nc(Oc4cccnc4)nc3c2)c2ccccc2c1 [P-0321, 4-(4-((1R,5S)-3,8-diazabicyclo[3.2.1]octan-8-yl)-2-(pyridin-3-yloxy)quinazolin-7-yl)naphthalen-2-ol]	10 to 100	10 to 100
Oc1cc(-c2ccc3c(N4[C@@H]5CC[C@H]4CNC5)nc(Nc4cccnc4)nc3c2)c2ccccc2c1 [P-0322, 4-(4-((1R,5S)-3,8-diazabicyclo[3.2.1]octan-8-yl)-2-(pyridin-3-ylamino)quinazolin-7-yl)naphthalen-2-ol]	10 to 100	10 to 100
CN1CCC[C@H]1COc1nc(N2C[C@H]3CC[C@@H](C2)N3)c2cc(Cl)c(-c3c[nH]c4ccc(Cl)cc34)c(F)c2n1 [P-0323, 4-((1R,5S)-3,8-diazabicyclo[3.2.1]octan-3-yl)-6-chloro-7-(5-chloro-1H-indol-3-yl)-8-fluoro-2-(((S)-1-methylpyrrolidin-2-yl)methoxy)quinazoline]	0.0001 to 10	10 to 100
CN1CCC[C@H]1COc1nc(N2[C@@H]3CC[C@H]2CN(C(=O)CC(=O)O)C3)c2ccc(-c3cc(O)cc4ccccc34)cc2n1 [P-0324, 3-((1R,5S)-8-(7-(3-hydroxynaphthalen-1-yl)-2-(((S)-1-methylpyrrolidin-2-yl)methoxy)quinazolin-4-yl)-3,8-diazabicyclo[3.2.1]octan-3-yl)-3-oxopropanoic acid]	100 to 1000	10 to 100
CN1CCC[C@H]1COc1nc(N2[C@@H]3CC[C@H]2CN(C(=O)CC#N)C3)c2ccc(-c3cc(O)cc4ccccc34)cc2n1 [P-0325, 3-((1R,5S)-8-(7-(3-hydroxynaphthalen-1-yl)-2-(((S)-1-methylpyrrolidin-2-yl)methoxy)quinazolin-4-yl)-3,8-diazabicyclo[3.2.1]octan-3-yl)-3-oxopropanenitrile]	10 to 100	0.0001 to 10
CN(C)c1ccc(CCc2nc(N3C[C@H]4CC[C@@H](C3)N4)c3cc(Cl)c(-c4c(O)cccc4F)c(F)c3n2)cc1 [P-0326, 2-(4-((1R,5S)-3,8-diazabicyclo[3.2.1]octan-3-yl)-6-chloro-2-(4-(dimethylamino)phenethyl)-8-fluoroquinazolin-7-yl)-3-fluorophenol]	0.0001 to 10	0.0001 to 10
CN1CCC[C@H]1COc1nc(N2CC3CCC2CN3)c2ccc(-c3cc(O)cc4ccccc34)c(F)c2n1 (stereo partly drawn) [P-0327, 4-(4-(2,5-diazabicyclo[2.2.2]octan-2-yl)-8-fluoro-2-(((S)-1-methylpyrrolidin-2-yl)methoxy)quinazolin-7-yl)naphthalen-2-ol]	0.0001 to 10	10 to 100
CN1CCC(Oc2nc(N3C[C@H]4CC[C@@H](C3)N4)c3cc(Cl)c(-c4c(O)cccc4F)c(F)c3n2)CC1 [P-0329, 2-(4-((1R,5S)-3,8-diazabicyclo[3.2.1]octan-3-yl)-6-chloro-8-fluoro-2-((1-methylpiperidin-4-yl)oxy)quinazolin-7-yl)-3-fluorophenol]	0.0001 to 10	10 to 100
COc1cccc(F)c1-c1c(Cl)cc2c(N3C[C@H]4CC[C@@H](C3)N4)nc(OC3CCN(C)CC3)nc2c1F [P-0330, 4-((1R,5S)-3,8-diazabicyclo[3.2.1]octan-3-yl)-6-chloro-8-fluoro-7-(2-fluoro-6-methoxyphenyl)-2-((1-methylpiperidin-4-yl)oxy)quinazoline]	0.0001 to 10	10 to 100
CN1CCc2cccc(Oc3nc(N4C[C@H]5CC[C@@H](C4)N5)c4cc(Cl)c(-c5c(O)cccc5F)c(F)c4n3)c2C1 [P-0331, 2-(4-((1R,5S)-3,8-diazabicyclo[3.2.1]octan-3-yl)-6-chloro-8-fluoro-2-((2-methyl-1,2,3,4-tetrahydroisoquinolin-8-yl)oxy)quinazolin-7-yl)-3-fluorophenol]	0.0001 to 10	10 to 100
CN1CCc2cccc(Oc3nc(N4C[C@H]5CC[C@@H](C4)N5)c4ccc(-c5c(O)cccc5F)c(F)c4n3)c2C1 [P-0332, 2-(4-((1R,5S)-3,8-diazabicyclo[3.2.1]octan-3-yl)-8-fluoro-2-((2-methyl-1,2,3,4-tetrahydroisoquinolin-8-yl)oxy)quinazolin-7-yl)-3-fluorophenol]	10 to 100	10 to 100
